This is an account of results in patent US10774086B2, “GSK-3 inhibitors” (BRISTOL-MYERS SQUIBB COMPANY, priority 2016, dated 2020).

For one assay, the target named is GSK3β (Homo sapiens (Human), UniProt P49841). The experiment in a line: GSK3β kinase assay (Caliper LabChip, fluoresceinated peptide substrate). The class given is biochemical. The settings on record: 250 pM enzyme, 20 uM ATP, 1.5 uM peptide, 20 hours room temperature; read-out: GSK3β IC50 (first value of GSK3β/GSK3α).
In another assay the target is GSK3α (Homo sapiens (Human), UniProt P49840). The assay is described as follows: GSK3α kinase assay (Caliper LabChip, fluoresceinated peptide substrate). The class given is biochemical. The note with it: 250 pM enzyme, 20 uM ATP, 1.5 uM peptide, 20 hours room temperature; read-out: GSK3α IC50 (second value of GSK3β/GSK3α). An excerpt: IC50 values were derived by non-linear regression analysis.

In another assay the test system is pTau. The assay is described as follows: pTau assay. The class given is cell-based.

GSK3α, sequence (P49840 whole entry, species assumed): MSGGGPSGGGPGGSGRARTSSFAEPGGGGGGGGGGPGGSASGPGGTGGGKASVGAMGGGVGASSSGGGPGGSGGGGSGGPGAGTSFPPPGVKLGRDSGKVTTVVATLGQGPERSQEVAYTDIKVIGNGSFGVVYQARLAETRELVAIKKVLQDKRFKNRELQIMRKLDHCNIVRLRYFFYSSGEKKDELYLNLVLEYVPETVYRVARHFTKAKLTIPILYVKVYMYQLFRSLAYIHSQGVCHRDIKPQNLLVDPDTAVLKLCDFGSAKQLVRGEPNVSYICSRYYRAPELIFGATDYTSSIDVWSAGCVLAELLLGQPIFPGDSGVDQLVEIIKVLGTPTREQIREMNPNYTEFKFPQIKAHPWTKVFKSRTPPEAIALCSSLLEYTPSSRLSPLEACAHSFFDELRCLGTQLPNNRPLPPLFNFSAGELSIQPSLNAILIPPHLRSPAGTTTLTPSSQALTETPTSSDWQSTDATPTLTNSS
GSK3β, sequence (P49841 whole entry, species assumed): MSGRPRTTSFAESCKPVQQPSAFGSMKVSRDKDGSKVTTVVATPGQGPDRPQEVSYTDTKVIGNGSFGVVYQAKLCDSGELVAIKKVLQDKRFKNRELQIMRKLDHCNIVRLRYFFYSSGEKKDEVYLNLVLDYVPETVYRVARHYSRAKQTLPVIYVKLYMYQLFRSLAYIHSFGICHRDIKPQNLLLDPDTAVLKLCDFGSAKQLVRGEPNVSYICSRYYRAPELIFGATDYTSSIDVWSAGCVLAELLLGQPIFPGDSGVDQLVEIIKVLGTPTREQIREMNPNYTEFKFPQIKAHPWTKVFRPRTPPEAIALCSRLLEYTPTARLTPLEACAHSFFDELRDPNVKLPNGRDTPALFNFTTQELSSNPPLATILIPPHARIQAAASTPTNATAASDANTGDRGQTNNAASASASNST
Experimental for GSK3β: The kinase assay was performed in V-bottom 384-well plates. […] The reaction was incubated at room temperature for 20 hours and terminated by adding 45 μl of 35 mM EDTA to each sample. The reaction mixture was analyzed on the Caliper LabChip3000 (Caliper, Hopkinton, Mass.) by electrophoretic separation of the unphosphorylated substrate and phosphorylated product. […] Compounds were dissolved at 10 mM in dimethylsulfoxide (DMSO) and evaluated at eleven concentrations. IC50 values were derived by non-linear regression analysis.

As to `O=C(Nc1cnc(F)cc1N1CCC(F)(F)CC1)c1ccnn2cc(-c3ccccc3)nc12` [Example 20, N-(4-(4,4-Difluoropiperidin-1-yl)-6-fluoropyridin-3-yl)-2-phenylimidazo[1,2-b]pyridazine-8-carboxamide], the IC50 at GSK3β was determined as 2.3 nM; at GSK3α, 0.6 nM; in the assay with pTau it was 160 nM.
The matching figures for `CC(C)Oc1ccncc1NC(=O)c1ccnn2c(NC(=O)C3CCC3)cnc12` [Example 47, 3-(Cyclobutanecarboxamido)-N-(4-isopropoxypyridin-3-yl)imidazo[1,2-b]pyridazine-8-carboxamide]: 140 nM, 110 nM and 6800 nM.
The matching figures for `C[C@H]1COCCN1c1ccncc1NC(=O)c1ccnn2cc(-c3ccccc3)nc12` [Example 18, (S)—N-(4-(3-Methylmorpholino)pyridin-3-yl)-2-phenylimidazo[1,2-b]pyridazine-8-carboxamide]: 0.3 nM, 0.3 nM and 5.7 nM.
As to `CC1CN(c2ccncc2NC(=O)c2ccnn3ccnc23)CCO1` (stereo not drawn) [Example 29, N-(4-(2-Methylmorpholino)pyridin-3-yl)imidazo[1,2-b]pyridazine-8-carboxamide], the figures for the IC50 at GSK3β, at GSK3α and with pTau were 3.8 nM, 3.2 nM and 250 nM, respectively.
On to `N#Cc1ccc(-c2ccncc2NC(=O)c2ccnn3cc(-c4ccccc4)nc23)cc1` [Example 8, N-(4-(4-Cyanophenyl)pyridin-3-yl)-2-phenylimidazo[1,2-b]pyridazine-8-carboxamide], for which the IC50 was 1.1 nM on GSK3β, 0.3 nM at GSK3α and 160 nM in the assay with pTau.
In the same order, the values of `O=C(Nc1cnccc1-c1ccc(F)cc1)c1ccnn2cc(C3CC3)nc12` [Example 30, 2-Cyclopropyl-N-(4-(4-fluorophenyl)pyridin-3-yl)imidazo[1,2-b]pyridazine-8-carboxamide] are 1.9 nM, 0.4 nM and 380 nM.
Regarding `Cc1ccncc1NC(=O)c1ccnn2c(NCC3CC3)cnc12` [Example 40, 3-((Cyclopropylmethyl)amino)-N-(4-methylpyridin-3-yl)imidazo[1,2-b]pyridazine-8-carboxamide], the IC50 came out at 63 nM at GSK3β, 30 nM at GSK3α and 3900 nM with pTau.
`O=C(Nc1cnccc1N1CCOCC1)c1ccnn2c(NCC3CC3)cnc12` [Example 44, 3-((Cyclopropylmethyl)amino)-N-(4-morpholinopyridin-3-yl)imidazo[1,2-b]pyridazine-8-carboxamide]: the IC50 on GSK3β is 9 nM; at GSK3α, 1.4 nM; with pTau it was 65 nM.
As to `CC(C)Oc1ccncc1NC(=O)c1ccnn2c(NC(=O)C3CC3)cnc12` [Example 46, 3-(Cyclopropanecarboxamido)-N-(4-isopropoxypyridin-3-yl)imidazo[1,2-b]pyridazine-8-carboxamide], the values for the IC50 on GSK3β, at GSK3α and in the assay on pTau were 6 nM, 51 nM and 5100 nM, respectively.
The matching figures for `O=C(Nc1cnc(Cl)cc1N1CCC(F)(F)CC1)c1ccnn2cc(-c3ccccc3)nc12` [Example 22, N-(6-Chloro-4-(4,4-difluoropiperidin-1-yl)pyridin-3-yl)-2-phenylimidazo[1,2-b]pyridazine-8-carboxamide]: 14 nM, 2.9 nM and 2000 nM.
Turning to `O=C(Nc1cnccc1N1CCC(F)(F)CC1)c1ccnn2ccnc12` [Example 28, N-(4-(4,4-Difluoropiperidin-1-yl)pyridin-3-yl)imidazo[1,2-b]pyridazine-8-carboxamide], the values for the IC50 on GSK3β, at GSK3α and in the assay on pTau were 4.6 nM, 2 nM and 140 nM, respectively.
In the case of `O=C(Nc1cnccc1N1CCC(F)(F)CC1)c1ccnn2cc(C3=CCCCC3)nc12` [Example 34, 2-(Cyclohex-1-en-1-yl)-N-(4-(4,4-difluoropiperidin-1-yl)pyridin-3-yl)imidazo[1,2-b]pyridazine-8-carboxamide], the values for the IC50 on GSK3β, at GSK3α and in the assay on pTau were 0.4 nM, 0.1 nM and 28 nM, respectively.
Turning to `O=C(Nc1cnccc1N1CCOCC1)c1ccnn2cc(-c3ccc(C(F)(F)F)cc3)nc12` [Example 25, N-(4-Morpholinopyridin-3-yl)-2-(4-(trifluoromethyl)phenyl)imidazo[1,2-b]pyridazine-8-carboxamide], the IC50 was 0.8 nM at GSK3β, 0.2 nM at GSK3α and 49 nM in the assay with pTau.
`CC1CN(c2ccncc2NC(=O)c2ccnn3c(NCC4CC4)cnc23)CCO1` (stereo not drawn) [Example 45, 3-((Cyclopropylmethyl)amino)-N-(4-(2-methylmorpholino)pyridin-3-yl)imidazo[1,2-b]pyridazine-8-carboxamide]: the IC50 stood at 5.2 nM on GSK3β, 1.6 nM at GSK3α and 140 nM in the assay with pTau.
Turning to `CCOc1ncncc1NC(=O)c1ccnn2cc(-c3ccccc3)nc12` [Example 37, N-(4-Ethoxypyrimidin-5-yl)-2-phenylimidazo[1,2-b]pyridazine-8-carboxamide], the IC50 was 5.3 nM on GSK3β, 1 nM on GSK3α and 620 nM in the assay on pTau.
With `O=C(Nc1cnccc1-c1ccccc1)c1ccnn2c(NCC3CC3)cnc12` [Example 42, 3-((Cyclopropylmethyl)amino)-N-(4-phenylpyridin-3-yl)imidazo[1,2-b]pyridazine-8-carboxamide], the values for the IC50 at GSK3β, on GSK3α and in the assay on pTau were 3.4 nM, 3.2 nM and 320 nM, respectively.
With `O=C(Nc1cnccc1N1CCOCC1)c1ccnn2cc(-c3ccccc3)nc12` [Example 13, N-(4-Morpholinopyridin-3-yl)-2-phenylimidazo[1,2-b]pyridazine-8-carboxamide], the figures for the IC50 on GSK3β, at GSK3α and in the assay on pTau were 0.4 nM, 0.2 nM and 36 nM, respectively.
Consider `O=C(Nc1cncnc1OCC(F)(F)F)c1ccnn2cc(-c3ccccc3)nc12` [Example 38, 2-Phenyl-N-(4-(2,2,2-trifluoroethoxy)pyrimidin-5-yl)imidazo[1,2-b]pyridazine-8-carboxamide], for which the IC50 at GSK3β was 3.6 nM; on GSK3α, 1 nM; in the assay on pTau it was 330 nM.
